{"source": "patent US20230263766A1", "about": "“CANNABINOID-CONTAINING FORMULATIONS FOR PARKINSONIAN MOVEMENT DISORDERS” (GBS Global BioPharma, Inc., priority 2021, published 2023)", "key": {"[1]": {"test_system": "Cath.a cells", "assay": "In vitro neuroprotection assay (MPTP/MPP+ cytotoxicity, MTT cell viability)", "type": "cell-based, mouse", "method": "(§1) Cell lines used were from ATCC. Cath.a cells (sp. = mouse, cat# CRL-11179, ATCC, Manassas, Virginia, US), a CNS catecholaminergic cell line, were cultured according to ATCC instructions and were induced to CAD differentiated status by serum deprivation (0.5% FBS culture for 36 h) prior to experiments as described (Qi et al., 1997, Neurosci, 17, 1217-25). PC12 (sp. = rat, ATCC #CRL-1721) were cultured in RPMI 10% FBS. PC12 differentiation used Minimal Essential M medium containing 1% HS and 0.5% FBS, then the cells were treated with 100 ng/ml NGF, 100 ng/ml basic fibroblast growth factor (bFGF), and serum-starved media containing 2 mg/ml BSA for 2 days (Joen et al., 2010. Synapse, 64, pgs 765-72).\nNeuroprotective effects were assessed based on the ability of both individual compounds and mixtures of compounds to protect against neuronal cell death induced by 1-methyl-4-phenylpyridinium (MPP+) in the 1-methyl-4-phenyl-1,2,3,6-tetrahydropyridine (MPTP)-based selective cytotoxicity assay (Arshad et al., 2014, Acta Biochim Biophys Sin (Shanghai), 46, 22-30). MPP+ is an active metabolite of MPTP that is known to cause human Parkinsonism after injection. […] Cell viability was assessed 24 h after exposure to MPP, which is […] after exposure to the tested compound or compound mixture. […]"}, "[2]": {"test_system": "differentiated PC12 cells", "assay": "In vitro dopamine-release assay (Dopamine ELISA)", "type": "cell-based, rat", "conditions": "10 µM of each compound; 30 mins; normalized to PMA/Ionomycin control; mean +/- SD", "method": "as §1\nIn parallel with the neuroprotection assays, cannabinoid and terpene compounds were tested alone and in mixtures to determine their effects on dopamine release from differentiated PC12 cells. PC12 cells were differentiated as in (Joen et al., 2010. Synapse, 64, pgs 765-72; Hu et al., 2018, Int J Mol Med, 41, 195-201). Supernatant samples were collected from 3 replicate wells 30 mins after application of PMA/Ionomycin (positive control) or the indicated compounds, and dopamine was measured in the medium using the Dopamine ELISA Kit #KA1887 from Abnova (Abnova, California, US) according to manufacturer’s instructions. […]"}, "[3]": {"test_system": "zebrafish larvae", "assay": "Validation of the larval zebrafish OHDA model", "type": "in vivo", "method": "All compounds were diluted in 100% methanol (MeOH) and experiments were performed in a HEPES buffered E3 (HE3) medium (5 mM NaCl, 0.17 mM KCl, 0.33 mM CaCl2-2H2O, 0.33 mM MgSO4-7H2O, 10 mM HEPES, pH 7.2). Individual 120 hours post fertilization (hpf) larval zebrafish were transferred to a 48-well microtiter plate in 500 µL of HE3 media. Larvae were acclimated for at least one hour in a lighted 28.5° C. incubator (photon flux: 3-5 µmol s-1 m2) prior to experimentation and larval behavior was analyzed using DanioVision larval tracking systems with EthoVisionXT14/15 software (Noldus Information Technology Inc., Virginia, USA). Distance traveled was measured using dynamic subtraction at 28.5° C. over 120 minutes with the first 90 minutes under lighted conditions (15 µmol m-2 s-1), followed by alternating 5-minute dark/light cycles. Each larvae represents an independent measurement. […] 12 larvae were used in each experimental condition, and at least 2 replicates of each concentration were performed.\nLarvae were exposed to varying concentrations of 6-hydroxydopamine (OHDA) from 48-120 hours post fertilization (hpf). 15 dechorionated larvae were transferred in 5 mL of HE3 to each well of a six-well plate. The 5 mL exposure media was replaced daily, and ascorbic acid/saline buffer (used to resuspend OHDA) was used as a vehicle control. Larvae were then loaded into 48-well microtiter plate in 500 µL of HE3 media as described above.\nIn addition to distance travelled, activity was measured as a percentage change in pixel density during data acquisition. […] The frequency with which larvae switched between activity states and the cumulative duration of time spent in each activity state was then measured. Metrics were captured in 1 min bins, and the average over 90 minutes was used to calculate each metric in each activity state. For frequency calculations, the number of times larvae switched between activity states (high, moderate, and low) was calculated (termed Total Frequency). The cumulative amount of time spent in the high and moderate activity states combined (termed Cumulative Duration) was averaged over 90 minutes and measured as a percentage."}}}
{"smiles": "CCCCCc1cc(O)c2c(c1)OC(C)(CCC=C(C)C)C=C2", "note": "(centres unmarked) [CBC, Cannabichromene]", "values": [{"measurement": "neuroprotective effect of individual compounds", "setting": "[1]; 10 µM, MPTP/MPP+ induced apoptosis", "value": "all of the individual cannabinoids except CBC displayed some neuroprotective effects"}]}
{"smiles": "C=C(C)[C@@H]1CCC(C)=C[C@H]1c1c(O)cc(CCCCC)cc1O", "note": "[CBD, Cannabidiol]", "values": [{"measurement": "DOPA release", "setting": "[2]", "value": "6.0 +/- 0.3%"}, {"measurement": "effect of adding a major cannabinoid to MIX-1, MIX-2, MIX-3 on cell survival", "setting": "[1]; 10 µM each, equimolar", "value": "increased cell survival in all three mixtures"}]}
{"smiles": "CCCCCc1cc(O)c2c(c1)OC(C)(C)c1ccc(C)cc1-2", "note": "[CBN, Cannabinol]", "values": [{"measurement": "DOPA release", "setting": "[2]", "value": "8.1 +/- 0.4%"}]}
{"smiles": "NCCc1cc(O)c(O)cc1O", "note": "[OHDA, 6-hydroxydopamine]", "values": [{"measurement": "startle response", "setting": "[3]; 150 µM OHDA", "value": "not impacting the startle response"}, {"measurement": "maximum response to the light/dark transition (startle response)", "setting": "[3]; 225 µM OHDA", "value": "non-significant increase in the maximum response to the light/dark transition"}, {"measurement": "baseline activity during initial 90-minute period in the light", "setting": "[3]; OHDA exposure 48-120 hpf", "value": "concentration-dependent decrease in the baseline activity"}, {"measurement": "fraction of time in high activity", "setting": "[3]; OHDA treated larvae", "value": 1, "unit": "%"}, {"measurement": "fraction of time in moderate activity", "setting": "[3]; OHDA treated larvae", "value": 5, "unit": "%"}, {"measurement": "fraction of time in the inactive state", "setting": "[3]; OHDA treated larvae", "value": "~ 90%"}, {"measurement": "reduction in activity state transitions for all three states", "setting": "[3]; OHDA treatment vs untreated", "value": "50-60%"}]}
